Structures are written as SMILES.

`*/C=C(/*)CCCOc1ccc(OC(=O)c2ccc(OCCCCCCCC)cc2)cc1` (repeat unit): the glass transition temperature was 42.00 °C.

In turn, `*C(=O)Nc1ccc(-c2cc(-c3ccccc3)cc(-c3ccc(NC(=O)c4ccc5c(c4)C(=O)N(c4ccc(NC(=O)Nc6ccc(N7C(=O)c8ccc(*)cc8C7=O)cc6)cc4)C5=O)cc3)n2)cc1` (repeat unit) registered a glass transition temperature of 215.00 °C.

Turning to `*C(=O)Nc1ccc(-c2ccc(NC(=O)c3ccc4c(c3)C(=O)N(c3ccc(NC(=O)Nc5ccc(N6C(=O)c7ccc(*)cc7C6=O)cc5)cc3)C4=O)cc2)cc1` (repeat unit), the glass transition temperature amounted to 233.00 °C.

Take `*C(=O)Nc1ccc(C(=O)c2ccc(NC(=O)c3ccc4c(c3)C(=O)N(c3cccc(P(=O)(c5ccccc5)c5cccc(N6C(=O)c7ccc(*)cc7C6=O)c5)c3)C4=O)cc2)cc1` (repeat unit): the glass transition temperature stood at 238.00 °C.

Molecule `*C(=O)Nc1ccc(C(c2ccc(NC(=O)c3ccc4c(c3)C(=O)N(c3ccc(Oc5ccc6ccc(Oc7ccc(N8C(=O)c9ccc(*)cc9C8=O)cc7)cc6c5)cc3)C4=O)cc2)(C(F)(F)F)C(F)(F)F)cc1` (repeat unit) yielded a glass transition temperature of 292.00 °C.

`*C(=O)Nc1ccc(C2(c3ccc(N4C(=O)c5ccc(*)cc5C4=O)cc3)CCCCC2)cc1` (repeat unit): the glass transition temperature stood at 319.00 °C.

Turning to `*C(=O)Nc1ccc(Cc2ccc(N3C(=O)CC(N4C(=O)c5ccc(*)cc5C4=O)C3=O)cc2)cc1` (repeat unit), the glass transition temperature turned out to be 123.00 °C.

The molecule `*C(=O)Nc1ccc(Cc2ccc(NC(=O)c3ccc4c(c3)C(=O)N(c3ccc(-c5sc(-c6ccc(N7C(=O)c8ccc(*)cc8C7=O)cc6)c(-c6ccccc6)c5-c5ccccc5)cc3)C4=O)cc2)cc1` (repeat unit) had a glass transition temperature of 253.00 °C.

`*C(=O)Nc1ccc(N2C(=O)CC(N3C(=O)c4ccc(*)cc4C3=O)C2=O)cc1` (repeat unit) came in with a glass transition temperature of 120.00 °C.

On to `*C(=O)Nc1ccc(NC(=O)c2ccc3c(c2)C(=O)N(c2ccc(NC(=O)Nc4ccc(N5C(=O)c6ccc(*)cc6C5=O)cc4)cc2)C3=O)cc1` (repeat unit), for which the glass transition temperature turned out to be 216.00 °C.

As to `*C(=O)Nc1ccc(Oc2ccc(NC(=O)c3ccc4c(c3)C(=O)N(c3ccc(NC(=O)Nc5ccc(N6C(=O)c7ccc(*)cc7C6=O)cc5)cc3)C4=O)cc2)cc1` (repeat unit), the glass transition temperature amounted to 205.00 °C.

Molecule `*C(=O)OCCCCCCCCCCCCOC(=O)c1ccc(NC(=O)c2ccc(N3C(=O)c4ccc(*)cc4C3=O)cc2)cc1` (repeat unit) showed a glass transition temperature of 74.00 °C.

For the molecule `*C(=O)OCCCCCCCOC(=O)c1ccc(NC(=O)c2ccc(N3C(=O)c4ccc(*)cc4C3=O)cc2)cc1` (repeat unit), the glass transition temperature worked out at 106.00 °C.

Take `*C(=O)OCCCCCCOC(=O)c1ccc(NC(=O)c2ccc(N3C(=O)c4ccc(*)cc4C3=O)cc2)cc1` (repeat unit): the glass transition temperature came to 107.00 °C.

In turn, `*C(=O)OCCCCOC(=O)c1ccc(NC(=O)c2ccc(N3C(=O)c4ccc(*)cc4C3=O)cc2)cc1` (repeat unit) gave a glass transition temperature of 130.00 °C.

Molecule `*CCCCCCCCOC(=O)Nc1ccc(Cc2ccc(NC(=O)O*)cc2)cc1` (repeat unit) came in with a glass transition temperature of 79.00 °C.

The molecule `*CCCCOC(=O)Nc1ccc(Cc2ccc(NC(=O)O*)cc2)cc1` (repeat unit) yielded a glass transition temperature of 109.00 °C.

Regarding `*CCCOC(=O)Nc1ccc(Cc2ccc(NC(=O)O*)cc2)cc1` (repeat unit), the glass transition temperature was determined as 119.00 °C.

`*CCN(CCOC(=O)Nc1ccc(Cc2ccc(NC(=O)O*)cc2)cc1)c1ccc(/N=N/c2ccc([N+](=O)[O-])cc2)cc1` (repeat unit) returned a glass transition temperature of 136.40 °C.

`*CCN(CCOC(=O)Nc1ccc(Cc2ccc(NC(=O)O*)cc2)cc1)c1ccccc1` (repeat unit) came in with a glass transition temperature of 31.90 °C.

Regarding `*CCOC(=O)Nc1ccc(Cc2ccc(NC(=O)OCCOc3ccc(O*)cc3)cc2)cc1` (repeat unit), the glass transition temperature was 98.00 °C.

`*Cc1ccc2oc(=O)c(C(=O)Nc3ccc(C(c4ccc(NC(=O)c5cc6cc(*)ccc6oc5=O)cc4)(C(F)(F)F)C(F)(F)F)cc3)cc2c1` (repeat unit) yielded a glass transition temperature of 329.00 °C.

Take `*Nc1ccc(C(=O)c2ccc(NC(=O)c3ccc(C(*)=O)cc3)cc2)cc1` (repeat unit): the glass transition temperature was found to be 300.00 °C.

`*Nc1ccc(C(=O)c2ccc(NC(=O)c3cccc(C(*)=O)c3)cc2)cc1` (repeat unit) had a glass transition temperature of 253.20 °C.

In turn, `*Nc1ccc(C(c2ccc(NC(=O)c3ccc(-c4ccc(C(*)=O)cc4)cc3)cc2)(P2(=O)Oc3ccccc3-c3ccccc32)P2(=O)Oc3ccccc3-c3ccccc32)cc1` (repeat unit) came in with a glass transition temperature of 251.00 °C.

The molecule `*Nc1ccc(C(c2ccc(NC(=O)c3ccc(C(c4ccc(C(*)=O)cc4)(C(F)(F)F)C(F)(F)F)cc3)cc2)(P2(=O)Oc3ccccc3-c3ccccc32)P2(=O)Oc3ccccc3-c3ccccc32)cc1` (repeat unit) registered a glass transition temperature of 235.00 °C.

Regarding `*Nc1ccc(Cc2ccc(NC(=O)Nc3ccccc3CCc3ccc(NC(*)=O)cc3)cc2)cc1` (repeat unit), the glass transition temperature was 217.00 °C.

`*Nc1ccc(Cc2ccc(NC(=O)c3cc(C(*)=O)cc(N4C(=O)C5C6C=CC(C6)C5C4=O)c3)cc2)cc1` (repeat unit): the glass transition temperature amounted to 303.00 °C.

In turn, `*Nc1ccc(Cc2ccc(NC(=O)c3cc(C(*)=O)cc(N4C(=O)C=CC4=O)c3)cc2)cc1` (repeat unit) yielded a glass transition temperature of 287.00 °C.

`*Nc1ccc(Cc2ccc(NC(=O)c3ccc(P(=O)(c4ccccc4)c4ccc(C(*)=O)cc4)cc3)cc2)cc1` (repeat unit) displayed a glass transition temperature of 307.00 °C.

Molecule `*Nc1ccccc1CCc1ccc(NC(*)=O)cc1` (repeat unit) yielded a glass transition temperature of 198.00 °C.

Regarding `*OC(=O)Nc1ccc(Cc2ccc(NC(=O)OC3CC4CC(*)CC(C3)O4)cc2)cc1` (repeat unit), the glass transition temperature turned out to be 200.00 °C.

`*OC(COC(=O)Nc1ccc(Cc2ccc(NC(*)=O)cc2)cc1)c1ccco1` (repeat unit) came in with a glass transition temperature of 40.00 °C.

Regarding `*Oc1ccc(/N=C/C=N/c2ccc(OC(=O)Nc3ccc(Cc4ccc(NC(*)=O)cc4)cc3)cc2)cc1` (repeat unit), the glass transition temperature came out at 133.00 °C.

Regarding `*Oc1ccc(C(=O)Nc2ccc(C(c3ccc(NC(=O)c4ccc(OC(=O)c5ccc(C(*)=O)cc5)cc4)cc3)(C(F)(F)F)C(F)(F)F)cc2)cc1` (repeat unit), the glass transition temperature is 266.00 °C.

Regarding `*Oc1ccc(Oc2ccc(C(=O)Nc3ccc(Cc4ccc(NC(=O)c5ccc(*)cc5)cc4)cc3)cc2)cc1-c1ccccc1` (repeat unit), the glass transition temperature stood at 218.00 °C.

On to `*Oc1ccc(Oc2ccc(C(=O)c3ccc(NC(=O)c4cccc(C(=O)Nc5ccc(C(=O)c6ccc(*)cc6)cc5)c4)cc3)cc2)cc1` (repeat unit), for which the glass transition temperature was determined as 198.00 °C.

Consider `*Oc1ccc(S(=O)(=O)c2ccc(Oc3ccc(C(=O)c4ccc(-c5ccc(C(=O)c6ccc(*)cc6)cc5)cc4)cc3)cc2)cc1` (repeat unit), for which the glass transition temperature was found to be 207.00 °C.

As to `*Oc1cccc(Oc2ccc(C(=O)c3ccc(NC(=O)c4ccc(C(=O)Nc5ccc(C(=O)c6ccc(*)cc6)cc5)cc4)cc3)cc2)c1` (repeat unit), the glass transition temperature was 190.00 °C.

With `*Oc1cccc(Oc2ccc(C(=O)c3ccc(NC(=O)c4cccc(C(=O)Nc5ccc(C(=O)c6ccc(*)cc6)cc5)c4)cc3)cc2)c1` (repeat unit), the glass transition temperature amounted to 214.00 °C.

Take `*c1ccc(C(=O)Nc2ccc(N3C(=O)c4ccc(-c5ccc6c(c5)C(=O)N(*)C6=O)cc4C3=O)cc2)cc1` (repeat unit): the glass transition temperature stood at 335.00 °C.

As for `*c1ccc(C(=O)c2ccc(-n3nc(-c4ccc(Oc5ccc(-c6nn(*)c(=O)c7ccccc67)cc5)cc4)c4ccccc4c3=O)cc2)cc1` (repeat unit), the glass transition temperature is 301.00 °C.

`*c1ccc(C(=O)c2ccc(C(=O)c3ccc(Oc4ccc(-c5nn(*)c(=O)c6ccccc56)c(F)c4)cc3)cc2)cc1` (repeat unit) yielded a glass transition temperature of 287.00 °C.

For the molecule `*c1ccc(Cc2ccc(N3C(=O)CC(Nc4ccc(N(c5ccc(NC6CC(=O)N(*)C6=O)cc5)c5ccc([N+](=O)[O-])cc5)cc4)C3=O)cc2)cc1` (repeat unit), the glass transition temperature worked out at 276.00 °C.

In the case of `*c1ccc(Cc2ccc(NC(=O)c3ccc(Oc4ccc5c(c4)C(=O)N(*)C5=O)cc3)cc2)cc1` (repeat unit), the glass transition temperature was 250.00 °C.

Regarding `*c1ccc(Cc2ccc(NC(=O)c3ccc(Oc4cccc5c4C(=O)N(*)C5=O)cc3)cc2)cc1` (repeat unit), the glass transition temperature came out at 258.00 °C.

The molecule `*c1ccc(NC(=O)c2ccc(C(=O)Nc3ccc(-c4nnc(*)o4)cc3)c(Oc3ccccc3)c2)cc1` (repeat unit) had a glass transition temperature of 272.00 °C.

With `*c1ccc(NC(=O)c2ccc(OCCOCCOCCOCCOc3ccc(C(=O)Nc4ccc5[nH]c(*)nc5c4)cc3)cc2)cc1` (repeat unit), the glass transition temperature amounted to 140.00 °C.

`*c1ccc(NC(=O)c2ccc(OCCOCCOCCOc3ccc(C(=O)Nc4ccc5[nH]c(*)nc5c4)cc3)cc2)cc1` (repeat unit) registered a glass transition temperature of 155.00 °C.

The molecule `*c1ccc(NC2CC(=O)N(c3ccc(-c4sc(-c5ccc(N6C(=O)CC(Nc7ccc(-c8nc(-c9ccc(-c%10nc(-c%11ccc([N+](=O)[O-])cc%11)c(-c%11ccc([N+](=O)[O-])cc%11)[nH]%10)cc9)[nH]c8*)cc7)C6=O)cc5)c(-c5ccccc5)c4-c4ccccc4)cc3)C2=O)cc1` (repeat unit) came in with a glass transition temperature of 152.00 °C.

The molecule `*c1ccc(Oc2ccc(C(=O)c3ccc(-c4ccc(C(=O)c5ccc(Oc6ccc(-c7nc(-c8cccc(-c9nc(*)c(-c%10ccccc%10)[nH]9)c8)[nH]c7-c7ccccc7)cc6)cc5)cc4)cc3)cc2)cc1` (repeat unit) had a glass transition temperature of 276.00 °C.

Turning to `*c1cccc(C(=O)Nc2ccc(Cc3ccc(N4C(=O)c5ccc(S(=O)(=O)c6ccc7c(c6)C(=O)N(c6ccc(Cc8ccc(NC(=O)c9cccc(-c%10nc%11cc(-c%12ccc%13[nH]c(*)nc%13c%12)ccc%11[nH]%10)c9)cc8)cc6)C7=O)cc5C4=O)cc3)cc2)c1` (repeat unit), the glass transition temperature was determined as 270.00 °C.

These data come from the PolyMetriX glass transition set.
